This is an account of results in patent US20240041042A1, “1-(PYRIDYL)-5-AZINYLPYRAZOLE DERIVATIVES, AND THEIR USE FOR CONTROL OF UNDESIRED PLANT GROWTH” (Bayer Aktiengesellschaft, priority 2020, published 2024).

Common to all, as to format: in vivo
Series [1] relates to Pharbitis purpurea (PHBPU). The series is described as follows: Post-emergence herbicidal action against PHBPU. Summed up: (§1)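 Post-emergence greenhouse spray, one-leaf stage, 600 l/ha water plus 0.5% additive; WP or EC formulations; application rates 320 g/ha or lower. Visual % damage vs untreated controls at ~3 weeks.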
Another series has as its system Viola tricolor (VIOTR). The series is described as follows: Post-emergence herbicidal action against VIOTR. In outline:
as §1

Series [2] deals with Abutilon theophrasti (ABUTH). The series is described as follows: Post-emergence herbicidal action against ABUTH. Particulars: visual rating about 3 weeks after treatment vs untreated controls (100% = plants have died, 0% = like control plants). In outline: as §1
The subject of series [3] is Digitaria sanguinalis (DIGSA). As to the kind of experiment: Post-emergence herbicidal action against DIGSA. The note with it: visual rating about 3 weeks after treatment. In outline:
as §1

A further series has as its system Setaria viridis (SETVI). As to the kind of experiment: Post-emergence herbicidal action against SETVI. In outline: as §1
The subject of series [4] is Triticum aestivum (TRZAS). The note with it: crop plant compatibility, 20 g/ha, effect vs untreated controls. In outline: (§2)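 Foliar application at the one-leaf stage: WP/EC formulation, 0.5% additive, 600 l/ha water. Greenhouse-grown in sandy loam. Endpoint is visual % injury relative to untreated controls at about 3 weeks.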
The next series deals with Oryza sativa (ORYSA). The note with it: crop plant compatibility. Summed up:
as §2

The subject of series [5] is Echinochloa crus-galli (ECHCG). As to the kind of experiment: Post-emergence herbicidal action against ECHCG. Summed up: as §1
Series [6] deals with Amaranthus retroflexus (AMARE). As to the kind of experiment: Post-emergence herbicidal action against AMARE. Summed up:
as §1

Series [7] concerns Matricaria inodora (MATIN). As to the kind of experiment: Post-emergence herbicidal action against MATIN. In outline:
as §1

The subject of another series is Avena fatua (AVEFA). The series is described as follows: Post-emergence herbicidal action against AVEFA. The note with it: 320 g/ha, visual rating about 3 weeks after treatment. Summed up:
as §1

The subject of the next series is Lolium rigidum (LOLRI). The series is described as follows: Post-emergence herbicidal action against LOLRI. Particulars: dosage 320 g/ha. Summed up: as §1
The test system of series [8] is Alopecurus myosuroides (ALOMY). As to the kind of experiment: Post-emergence herbicidal action against ALOMY. Particulars: 320 g/ha, visual rating about 3 weeks after treatment vs untreated controls (100% = plants have died, 0% = like control plants). Summed up:
as §1

For series [9], the system named is Polygonum convolvulus (POLCO). As to the kind of experiment: Post-emergence herbicidal action against POLCO. In outline: as §1
For series [10], the system named is Verconica persica (VERPE). As to the kind of experiment: Post-emergence herbicidal action against VERPE. Summed up:
as §1

The test system of another series is Zea mays (ZEAMX). Particulars: for Post-emergence action against ZEAMX in % (crop plant compatibility): 20 g/ha, effect in comparison to untreated controls. Summed up: as §2
The mark [11] stands for this setting: 20 g/ha, effect vs untreated controls.
The mark [12] stands for this setting: 320 g/ha, visual rating about 3 weeks after treatment.

Read-outs that look alike come from different tables or passages of the source.

Regarding `C[C@@H](Oc1nn(-c2ncccc2F)c(-c2cncc(F)c2)c1Cl)C(=O)O` [Example I-165], the “Post-emergence action against PHBPU in %” value in [1] (dosage 80 g/ha) is recorded as 80%; in [1] (dosage 320 g/ha), 90%. The “Post-emergence action against VIOTR in %” value with Viola tricolor (VIOTR) (80 g/ha) and in the series with Viola tricolor (VIOTR) (320 g/ha) was 90% each time. For the same molecule, the “Post-emergence action against ABUTH in %” value in [2] (80 g/ha) and in [2] (320 g/ha) was 90% each time. In addition, the “Post-emergence action against DIGSA in %” value in series [3] (80 g/ha) and in [3] (320 g/ha) was 90% each time. Besides, the “Post-emergence action against SETVI in %” value in the series with Setaria viridis (SETVI) (dosage 80 g/ha) and with Setaria viridis (SETVI) (dosage 320 g/ha) was 90% throughout. Moreover, the “Post-emergence action against TRZAS in %” value in series [4] is 20%. For the same molecule, the “Post-emergence action against ORYSA in %” value in the series on Oryza sativa (ORYSA) (setting [11]) turned out to be 0%. In addition, the “Post-emergence action against ECHCG in %” value in series [5] (dosage 80 g/ha) and in [5] (dosage 320 g/ha) was 90% throughout. Moreover, the “Post-emergence action against AMARE in %” value in series [6] (setting [12]) amounted to 80%. In addition, the “Post-emergence action against MATIN in %” value amounted to 80% in series [7] (dosage 80 g/ha) and 90% in [7] (dosage 320 g/ha). In addition, in the series with Avena fatua (AVEFA), the “Post-emergence action against AVEFA in %” value turned out to be 90%. In addition, the “Post-emergence action against LOLRI in %” value in the series on Lolium rigidum (LOLRI) was 100%. The “Post-emergence action against ALOMY in %” value in series [8] was found to be 100%. Moreover, the “Post-emergence action against POLCO in %” value in [9] (dosage 80 g/ha) came out at 80%; in series [9] (dosage 320 g/ha), 90%. In addition, the “Post-emergence action against VERPE in %” value amounted to 90% in [10] (320 g/ha, VERPE) and 90% in series [10] (dosage 80 g/ha).
Consider `Cc1cccnc1-n1nc(OCC(=O)O)c(Cl)c1-c1cncc(F)c1` [Example I-182], for which the “Post-emergence action against PHBPU in %” value in [1] (dosage 80 g/ha) and in [1] (dosage 320 g/ha) was 90% throughout. In addition, the “Post-emergence action against VIOTR in %” value in the series on Viola tricolor (VIOTR) (80 g/ha) was 80%; in the series on Viola tricolor (VIOTR) (320 g/ha) it was 90%. Besides, the “Post-emergence action against ABUTH in %” value in series [2] (80 g/ha) and in series [2] (320 g/ha) was 80% in each case. In addition, the “Post-emergence action against DIGSA in %” value in series [3] (80 g/ha) turned out to be 90%; in [3] (320 g/ha) it was 100%. In addition, the “Post-emergence action against SETVI in %” value in the series on Setaria viridis (SETVI) (dosage 80 g/ha) and in the series with Setaria viridis (SETVI) (dosage 320 g/ha) was 80% each time. The “Post-emergence action against ZEAMX in % (crop plant compatibility)” value with Zea mays (ZEAMX) is 10%. The “Post-emergence action against ZEAMX in %” value in the series with Zea mays (ZEAMX) (crop plant compatibility, 80 g/ha, effect vs untreated controls) came to 20%. Further, the “Post-emergence action against TRZAS in %” value in series [4] is 10%. In the series with Oryza sativa (ORYSA) (setting [11]), the “Post-emergence action against ORYSA in %” value is listed as 10%. Further, the “Post-emergence action against ECHCG in %” value in series [5] (dosage 80 g/ha) and in series [5] (dosage 320 g/ha) was 90% each time. Besides, the “Post-emergence action against AMARE in %” value is 80% in series [6] (80 g/ha, visual rating about 3 weeks after treatment vs untreated controls (100% = plants have died, 0% = like control plants)) and 90% in series [6] (setting [12]). For the same molecule, the “Post-emergence action against MATIN in %” value is listed as 80% in [7] (dosage 80 g/ha) and 90% in series [7] (dosage 320 g/ha). Besides, the “Post-emergence action against AVEFA in %” value in the series on Avena fatua (AVEFA) was determined as 90%. Moreover, in [8], the “Post-emergence action against ALOMY in %” value is recorded as 80%. The entries for the “Post-emergence action against POLCO in %” value in [9] (dosage 80 g/ha) and in [9] (dosage 320 g/ha) were 80% and 90%, respectively. Moreover, the “Post-emergence action against VERPE in %” value in series [10] (320 g/ha, VERPE) worked out at 90%; in series [10] (dosage 80 g/ha), 80%.
Consider `CCOC(=O)COc1nn(-c2ccncc2F)c(-c2ccc(F)nc2)c1Br` [III-29], for which the results for the “Post-emergence action against PHBPU in %” value in series [1] (dosage 80 g/ha) and in [1] (dosage 320 g/ha) were 80% and 90%, respectively. Besides, the “Post-emergence action against ABUTH in %” value in series [2] (320 g/ha) came out at 80%. In addition, the “Post-emergence action against DIGSA in %” value in series [3] (320 g/ha) stood at 90%. Moreover, in the series on Setaria viridis (SETVI) (dosage 320 g/ha), the “Post-emergence action against SETVI in %” value is reported as 90%. The “Post-emergence action against ZEAMX in % (crop plant compatibility)” value with Zea mays (ZEAMX) turned out to be 10%. The “Post-emergence action against TRZAS in %” value in series [4] is recorded as 20%. Also, the “Post-emergence action against ORYSA in %” value in the series with Oryza sativa (ORYSA) (setting [11]) worked out at 10%; in the series with Oryza sativa (ORYSA) (80 g/ha, effect in comparison to untreated controls), 20%. Besides, the “Post-emergence action against ECHCG in %” value in [5] (dosage 80 g/ha) and in series [5] (dosage 320 g/ha) was 80% throughout. Besides, the “Post-emergence action against MATIN in %” value is listed as 80% in series [7] (dosage 80 g/ha) and 90% in series [7] (dosage 320 g/ha). Besides, the “Post-emergence action against LOLRI in %” value in the series with Lolium rigidum (LOLRI) is on record as 80%. The “Post-emergence action against ALOMY in %” value in series [8] is reported as 90%. Moreover, the “Post-emergence action against POLCO in %” value in [9] (dosage 320 g/ha) came to 80%. Also, the “Post-emergence action against VERPE in %” value in series [10] (320 g/ha, VERPE) is 80%.
